Reference: the supplement of paper PMC10307832

Experiments:
Assay in all cases: relative viability (nuclei count vs DMSO), 5 days (fraction); higher = more cells survive
[1] = compound: C1CC(C1)(C(=O)O)C(=O)O.[NH2-].[NH2-].[Pt+2] [Carboplatin] + Cc1cc(Nc2cc(N3CCN(C)CC3)nc(Sc3ccc(NC(=O)C4CC4)cc3)n2)n[nH]1 [Tozasertib] (partner 0.1 µM)
Summary of the method: (§1)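 One day after seeding in 1536-well plates, lung cancer cell lines were dosed by pin tool. Dosing was either single-drug or a fixed anchor-drug dose plus five library-drug doses (not always all listed) in √10 steps. After 5 days, nuclei were stained in one fix-and-stain step and counted on 4× images, and relative viability is the nuclei count of treated wells over that of vehicle wells, given as the median of duplicate plates.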

[2] = compound: NS(=O)(=O)OC[C@@H]1C[C@@H](n2ccc3c(N[C@H]4CCc5ccccc54)ncnc32)C[C@@H]1O [MLN4924] + O=C(CCCCCCC(=O)Nc1ccccc1)NO [Vorinostat] (partner 1 µM)
Summary of the method: as §1

[3] = compound: NS(=O)(=O)OC[C@@H]1C[C@@H](n2ccc3c(N[C@H]4CCc5ccccc54)ncnc32)C[C@@H]1O [MLN4924] + Cc1nc(NC(=O)N2CCC[C@H]2C(N)=O)sc1-c1ccnc(C(C)(C)C(F)(F)F)c1 [Alpelisib] (partner 2 µM)
Summary of the method: as §1

[4] = compound: NS(=O)(=O)OC[C@@H]1C[C@@H](n2ccc3c(N[C@H]4CCc5ccccc54)ncnc32)C[C@@H]1O [MLN4924] + COc1cccc2cc(-c3nc([C@H]4CC[C@H](C(=O)O)CC4)n4ncnc(N)c34)[nH]c12 [OSI-027] (partner 0.5 µM)
Summary of the method: as §1

UMC-11
relative viability ([1]; first compound 0.08 µM): 0.22
relative viability ([1]; first compound 0.253 µM): 0.208
relative viability ([1]; first compound 0.8 µM): 0.207
relative viability ([1]; first compound 2.53 µM): 0.193
relative viability ([1]; first compound 8 µM): 0.212
relative viability ([2]; first compound 0.04 µM): 0.173
relative viability ([2]; first compound 0.1265 µM): 0.169
relative viability ([2]; first compound 0.4 µM): 0.19
relative viability ([2]; first compound 1.265 µM): 0.144
relative viability ([2]; first compound 4 µM): 0.116
relative viability ([3]; first compound 0.04 µM): 0.59
relative viability ([3]; first compound 0.1265 µM): 0.249
relative viability ([3]; first compound 0.4 µM): 0.254
relative viability ([3]; first compound 1.265 µM): 0.128
relative viability ([3]; first compound 4 µM): 0.13
relative viability ([4]; first compound 0.04 µM): 0.429
relative viability ([4]; first compound 0.1265 µM): 0.315
relative viability ([4]; first compound 0.4 µM): 0.271
relative viability ([4]; first compound 1.265 µM): 0.168
relative viability ([4]; first compound 4 µM): 0.179
